In patent US20210369583A1, “COMPOSITIONS FOR PROVIDING SKIN CARE BENEFITS AND METHODS OF USE” (Danisco US Inc., priority 2018, published 2021):

Tests used:
Assay type in all cases: cell-based
[1] = test system: living human skin explants; test: Biochemical assay of MDA (lipid peroxidation) on living human skin explants exposed to pollutants
Experimental: Product A (Table 11) was diluted in water to obtain the following products at concentrations: product P1=A at 4%, product P2=A at 2% and product P3=A at 1%.
(§1) 59 human skin explants of an average diameter of 14 mm (±1 mm) were prepared on an abdoplasty coming from a person. The explants were kept in survival in BEM culture medium at 37° C. in a humid, 5%-CO2 atmosphere.
(§2) The tested products were topically applied on the basis of 2 μl per cm^2 and spread using a small spatula twice a day (morning and evening) on day 0, 1, 2, 3 and 4.
(§3) On D4, the explants of the batches ML and PML were placed on the 3D grid with 900 μl of HBSS and placed into the PolluBox® system.
(§4) 3 mL of the solution <<ML>> (supplemented with 150 μl/ml of NaCl 0.9%) were exposed by vaporization for 1 hour and half, as shown in the figure below.
The MDA assay was realized with an enhanced method of the TBARs (Thiobarbituric Acid Reactive Species) assay. The MDA was assayed in HBSS medium by addition of TBARs solution (thiobarbituric acid, hydrochloric acid and tricholoroacetic acid) and placed in a water bath (80° C. for 15 minutes). A lot of substances (like glucose) which are not related with lipoperoxidation, react with thiobarbituric acid (ThioBarbituric Acid Reagents=TBARS), so to enhance the specificity of the assay, the MDA was extracted by a liquid/liquid extraction with butanol. The MDA in butanol was measured in spectrofluorimetry (excitation: 515 nm, emission: 550 nm) using a Tecan Infinite M200 Pro microplate reader. Using this assay, MDA contained in the culture medium BEMc on […] was measured for the 4 explants per batch. The MDA concentration was expressed in pmol of MDA/ml of the medium. Concerned batches: all batches on day 5, 4 explants per batch.
The average of the blank batch TJ5 was calculated (154.0 nmol/L). Then, for each explant of MLJ5, this average value was subtracted from […]. That corresponds to calculating the delta (increase) of MDA induced by ML for each explant compared to the average of the batch without ML, it is ΔML.
These average deltas were then compared to the average delta of MDA induction without treatment (ΔML).

HO-1 (Heme-Oxygenase-1) = test: Immunostaining of HO-1 in human skin explants, image analysis
Experimental: as §1, §2, §3, §4
Heme-Oxygenase is a phase II skin anti-oxidant enzyme which generates cell anti-oxidant molecules. […] The immunostaining was performed using an automated slide processing system (Autostainer, Dako) and assessed by microscopical observation. […]
(§5) The images analyses were performed on all the images (9 to 12 images) of each batch using the CellD storing software (Olympus Microscopy, Matrix Optics (M)SdnBhd, Taman Mayhang, Maylasia). For each batch of explants, the percentage of the region of interest covered by the staining (stained surface percentage) was determined by image analysis. […]
Analyzed batches: T, P2, ML, P2ML (4 batches, 3 explants/batch, so 12 explants at day 5 referred to as TJ5, P2J5, MLJ5, P2MLJ5.

MT-1H (Metallothionein) = test: Immunostaining of MT-1H in human skin explants, image analysis; details: after pollutants exposure
Experimental: as §1, §2, §3, §4
Metallothionein (MT) is a unique heat-stable protein with a metal binding domain consisting of 20 cysteine residues. […] The immunostaining was performed using an automated slide processing system (Autostainer, Dako) and assessed by microscopical observation. […]
as §5
Analyzed batches: T, P2, ML, P2ML (4 batches, 3 explants/batch, so 12 explants) at day 5 referred to as: TJ5, P2J5, MLJ5, P2MLJ5.

Compound: O=C(O)[C@@H]1CCCN1 [Combination P4, L-Proline]
- MDA, variation ΔPML vs ΔML ([1]; MDA induction by pollutants, day 5): −34% #^
- reduction of the increase of MDA ([1]; after pollutant exposure (ΔPML vs ΔML)): 34%
- MDA, variation PML vs ML ([1]; after pollutants exposure, day 5): −10% ns
- effect on pollutant-induced HO-1 (HO-1 (Heme-Oxygenase-1); after pollutants exposure): strongly reduced the effect of the pollutants
- effect on HO-1 expression (HO-1 (Heme-Oxygenase-1); without pollutants, D5): does not seem to affect the HO-1 expression
- effect on pollutant-induced MT-1H (MT-1H (Metallothionein)): seems to strongly reduce the effect of the pollutants
